From patent US11414450B1, “Aminoglycosides and uses thereof” (REVAGENIX, INC., priority 2017, dated 2022)
In brackets after ≈: the same amount, converted by molar mass.

Tests used:
Format in all cases: cell-based
[1] = tested on: E. coli isogenic strain aph(3′)-Ia; test: MIC broth microdilution, E. coli isogenic strain aph(3′)-Ia; details: for Geometric Mean MIC values, E. coli isogenic strains, aph(3′)-Ia: Table 2, aph(3′)-Ia has activity at both the 3′-hydroxy and 5″-hydroxy positions
Experimental: (§1) Minimum inhibitory concentrations for the example compounds herein are determined by the broth microdilution method in accordance with the Clinical and Laboratory Standards Institute (CLSI) guidelines. In brief, organism suspensions are adjusted to a 0.5 McFarland standard to yield a final inoculum between 3×10^5 and 7×10^5 colony-forming units (CFU)/mL. Compound dilutions and inocula are made in sterile, cation adjusted Mueller-Hinton Broth (Beckton Dickinson). The inoculum is prepared by suspension of a colony from an agar plate that is prepared the previous day. Bacteria are suspended in sterile saline and added to each assay plate to obtain a final concentration of 5×10^5 CFU/mL. An inoculum volume of 100 μL is added to wells containing 100 μL of broth with 2-fold serial dilutions of the compound. All inoculated microdilution trays are incubated in ambient air at 35° C. for 18-24 hours. Following incubation, the lowest concentration of the compound that prevents visible growth (OD 600 nm<0.05) is recorded as the MIC. […] Performance of the assay is monitored by the use of laboratory quality-control strains and a compound with a defined MIC spectrum (such as levofloxacin), in accordance with CLSI guidelines. Compounds are tested against multiple microbiologic panels. Panels include: 1) a multi-species primary screening panel that includes multiple defined AG-R mechanisms; 2) a panel of isogenic strains carrying different common mechanisms of AG-R that allows characterization of the SAR for AMEs, RMTs, and entry and efflux resistance mechanisms; and 3) panels of recent clinical isolates selected from Phase 3 studies and ongoing global surveillance.

[2] = tested on: E. coli isogenic strain nmpA; test: MIC broth microdilution, E. coli isogenic strain nmpA; details: for Geometric Mean MIC values, E. coli isogenic strains, nmpA: Table 2
Experimental: as §1

[3] = tested on: E. coli isogenic strain aph(3′)-II; test: MIC broth microdilution, E. coli isogenic strain aph(3′)-II; details: for Geometric Mean MIC values, E. coli isogenic strains, aph(3′)-II: Table 2
Experimental: as §1

[4] = tested on: E. coli Δefflux (tolC efflux pump knocked-out); test: MIC broth microdilution, E. coli Δefflux strain (tolC knocked out)
Experimental: as §1

[5] = tested on: E. coli isogenic strain armA; test: MIC broth microdilution, E. coli isogenic strain armA; details: for Geometric Mean MIC values, E. coli isogenic strains, armA: Table 2
Experimental: as §1

[6] = tested on: E. coli isogenic strain aac(6′)-Ib; test: MIC broth microdilution, E. coli isogenic strain aac(6′)-Ib; details: for Geometric Mean MIC values, E. coli isogenic strains, aac(6′)-Ib: Table 2
Experimental: as §1

E. coli ATCC 25922 = test: Minimum inhibitory concentration (broth microdilution, CLSI), E. coli ATCC 25922; details: for Geometric Mean MIC values, E. coli ATCC 25922: Table 2
Experimental: as §1

E. coli efflux parent = test: MIC broth microdilution, E. coli efflux parent strain; details: for Geometric Mean MIC values, E. coli efflux parent: Table 2
Experimental: as §1

[7] = tested on: E. coli isogenic strain empty vector; test: MIC broth microdilution, E. coli isogenic strain, empty vector; details: for Geometric Mean MIC values, E. coli isogenic strains, empty vector: Table 2
Experimental: as §1

[8] = tested on: E. coli isogenic strain ant(4′)-Ia; test: MIC broth microdilution, E. coli isogenic strain ant(4′)-Ia; details: Table 2
Experimental: as §1

Structure (SMILES) | Geometric Mean MIC values, E. coli isogenic strains, aph(3′)-Ia [1] [µg/mL] | Geometric Mean MIC values, E. coli isogenic strains, nmpA [2] [µg/mL] | Geometric Mean MIC values, E. coli isogenic strains, aph(3′)-II [3] [µg/mL] | Geometric Mean MIC values, E. coli Δefflux ([4]; Table 2) [µg/mL] | Geometric Mean MIC values, E. coli isogenic strains, armA [5] [µg/mL] | Geometric Mean MIC values, E. coli isogenic strains, aac(6′)-Ib [6] [µg/mL] | Geometric Mean MIC values, E. coli ATCC 25922 (E. coli ATCC 25922) [µg/mL] | Geometric Mean MIC values, E. coli efflux parent (E. coli efflux parent) [µg/mL] | Geometric Mean MIC values, E. coli isogenic strains, empty vector [7] [µg/mL] | Geometric Mean MIC values, E. coli isogenic strains, ant(4′)-Ia [8] [µg/mL] | MIC ([1]; Escherichia coli, read-out: Geometric Mean MIC values, E. coli isogenic strains aph(3′)-Ia) [µg/mL] | MIC ([2]; Escherichia coli, read-out: Geometric Mean MIC values, E. coli isogenic strains npmA) [µg/mL] | MIC ([3]; Escherichia coli, read-out: Geometric Mean MIC values, E. coli isogenic strains aph(3′)-II) [µg/mL] | Geometric Mean MIC values, E. coli Δefflux ([4]; E. coli Δefflux) [µg/mL] | MIC ([5]; Escherichia coli, read-out: Geometric Mean MIC values, E. coli isogenic strains armA) [µg/mL] | MIC ([6]; Escherichia coli, read-out: Geometric Mean MIC values, E. coli isogenic strains aac(6′)-Ib) [µg/mL] | MIC (E. coli ATCC 25922; Escherichia coli, ATCC25922, E. coli ATCC 25922, broth microdilution, read-out: Geometric Mean MIC values, E. coli ATCC 25922) [µg/mL] | MIC (E. coli efflux parent; Escherichia coli, E. coli efflux parent strain, read-out: Geometric Mean MIC values, E. coli efflux parent) [µg/mL] | MIC ([7]; Escherichia coli, read-out: Geometric Mean MIC values, E. coli isogenic strains empty vector) [µg/mL]
NCC1OC(OC2C(CO)OC(OC3C(O)C(N)CC(N)C3OC3OC(C4(N)CC4)CCC3N)C2O)C(N)C(O)C1O (stereo not shown) [drawing 859] | >32 | 32 | 1 | 1 | 4 | 1 | 1 | 1 | 0.5 |  |  |  |  |  |  |  |  |  | 
CCC(N)C1CCC(N)C(OC2C(N)CC(N)C(O)C2OC2OC(CO)C(OC3OC(CN)C(O)C(O)C3N)C2O)O1 (stereo not shown) [drawing 860] | >64 | >64 | 1 | 0.71 | 3.2 | 1.3 | 2 | 1.4 | 1 | 1 |  |  |  |  |  |  |  |  | 
CCC(N)C1CCC(N)C(OC2C(N)CC(N)C(O)C2OC2OC(CO)C(OC3OC(CN)C(O)C(O)C3N)C2O)O1 (stereo not shown) [drawing 861] | >64 | >64 | 0.5 | 1 | 5.7 | 1 | 1.4 | 2 | 1 | 0.5 |  |  |  |  |  |  |  |  | 
NCC1OC(OC2C(N)CC(N)C(O)C2OC2OC(CO)C(OC3OC(CN)C(O)C(O)C3N)C2O)C(N)CC1O (stereo not shown) [drawing 864, reference compound] | 38 | >64 | 0.25 | 0.25 | 0.6 | 2 | 0.71 | 0.63 | 0.32 | 2 |  |  |  |  |  |  |  |  | 
NCC1OC(OC2C(CO)OC(OC3C(O)C(N)CC(N)C3OC3OC(CN)C(O)C(F)C3N)C2O)C(N)C(O)C1O (stereo not shown) [drawing 866] | >64 | >64 | 1 | 0.71 | 1.4 | 8 | 1.3 | 1.4 | 0.63 | 8 |  |  |  |  |  |  |  |  | 
CO[C@@H]1[C@@H](O[C@@H]2O[C@H](CO)[C@@H](O[C@H]3O[C@@H](CN)[C@@H](O)[C@H](O)[C@H]3N)[C@H]2O)[C@H](O[C@H]2O[C@H](CN)CC[C@H]2N)[C@@H](N)C[C@H]1N [drawing 889] |  |  |  |  |  |  |  |  |  |  | 16 (≈ 26.8 µM) | > 32 | 0.5 (≈ 0.838 µM) | 0.5 | 0.5 (≈ 0.838 µM) | 8 (≈ 13.4 µM) | 1 (≈ 1.68 µM) | 0.5 (≈ 0.838 µM) | 0.5 (≈ 0.838 µM)
